Results taken from patent publication US9873709B2 (priority 2013, dated 2018).

Each molecule was assayed on JAK1-dependent STAT6 phosphorylation downstream of IL-13 stimulation in TF-1 human erythroleukemia cells (assay: cells). Details: TF-1, read-out: IL-13-pSTAT6 IC50.

| SMILES | IC50 [nM] |
| --- | --- |
| Cc1cccc(C(C)NC(=O)c2ccc(Nc3nc4c(C5=CCN(C(=O)CCC(F)(F)F)CC5)cccn4n3)cc2)n1 (stereo not shown) [Example 2-401, N-[1-(6-methyl-2-pyridyl)ethyl]-4-[[8-[1-(4,4,4-trifluorobutanoyl)-3,6-dihydro-2H-pyridin-4-yl]-[1,2,4]triazolo[1,5-a]pyridin-2-yl]amino]benzamide] | 6 |
| CN(Cc1cccnc1)C(=O)c1ccc(Nc2nc3c(C4=CCN(C(=O)CCC(F)(F)F)CC4)cccn3n2)cc1 [Example 2-402, N-methyl-N-(3-pyridylmethyl)-4-[[8-[1-(4,4,4-trifluorobutanoyl)-3,6-dihydro-2H-pyridin-4-yl]-[1,2,4]triazolo[1,5-a]pyridin-2-yl]amino]benzamide] | 5.6 |
| O=C(CCC(F)(F)F)N1CC=C(c2cccn3nc(Nc4ccc(C(=O)N5CCCC(N6CCCCCC6)C5)cc4)nc23)CC1 (stereo not shown) [Example 2-403, 1-[4-[2-[4-[3-(azepan-1-yl)piperidine-1-carbonyl]anilino]-[1,2,4]triazolo[1,5-a]pyridin-8-yl]-3,6-dihydro-2H-pyridin-1-yl]-4,4,4-trifluoro-butan-1-one] | 7.4 |
| O=C(CCC(F)(F)F)N1CC=C(c2cccn3nc(Nc4ccc(C(=O)N5CCC(Cc6ccccn6)CC5)cc4)nc23)CC1 [Example 2-404, 4,4,4-trifluoro-1-[4-[2-[4-[4-(2-pyridylmethyl)piperidine-1-carbonyl]anilino]-[1,2,4]triazolo[1,5-a]pyridin-8-yl]-3,6-dihydro-2H-pyridin-1-yl]butan-1-one] | 13.2 |
| O=C(CCC(F)(F)F)N1CC=C(c2cccn3nc(Nc4ccc(C(=O)N5CCC(Cc6cccnc6)C5)cc4)nc23)CC1 (stereo not shown) [Example 2-405, 4,4,4-trifluoro-1-[4-[2-[4-[3-(3-pyridylmethyl)pyrrolidine-1-carbonyl]anilino]-[1,2,4]triazolo[1,5-a]pyridin-8-yl]-3,6-dihydro-2H-pyridin-1-yl]butan-one] | 7.5 |
| CN(Cc1ccc(N(C)C)cc1)C(=O)c1ccc(Nc2nc3c(C4=CCN(C(=O)CCC(F)(F)F)CC4)cccn3n2)cc1 [Example 2-406, N-[[4-(dimethylamino)phenyl]-methyl]-N-methyl-4-[[8-[1-(4,4,4-trifluorobutanoyl)-3,6-dihydro-2H-pyridin-4-yl]-[1,2,4]triazolo[1,5-a]pyridin-2-yl]amino]benzamide] | 40.4 |
| CN(Cc1ccncc1)C(=O)c1ccc(Nc2nc3c(C4=CCN(C(=O)CCC(F)(F)F)CC4)cccn3n2)cc1 [Example 2-407, N-methyl-N-(4-pyridylmethyl)-4-[[8-[1-(4,4,4-trifluorobutanoyl)-3,6-dihydro-2H-pyridin-4-yl]-[1,2,4]triazolo[1,5-a]pyridin-2-yl]amino]benzamide] | 4.7 |
| CN1CCC(N(C)C(=O)c2ccc(Nc3nc4c(C5=CCN(C(=O)c6ccccc6)CC5)cccn4n3)cc2)CC1 [Example 2-408, 4-[[8-(1-benzoyl-3,6-dihydro-2H-pyridin-4-yl)-[1,2,4]triazolo[1,5-a]pyridin-2-yl]amino]-N-methyl-N-(1-methyl-4-piperidyl)benzamide] | 188 |
| CN1CCC(N(C)C(=O)c2ccc(Nc3nc4c(C5=CCN(C(=O)C6CC6)CC5)cccn4n3)cc2)CC1 [Example 2-409, 4-[[8-[1-(cyclopropanecarbonyl)-3,6-dihydro-2H-pyridin-4-yl]-[1,2,4]triazolo[1,5-a]pyridin-2-yl]amino]-N-methyl-N-(1-methyl-4-piperidyl)benzamide] | 124 |
| CC(C)C(=O)N1CC=C(c2cccn3nc(Nc4ccc(C(=O)N(C)C5CCN(C)CC5)cc4)nc23)CC1 [Example 2-410, N-methyl-N-(1-methyl-4-piperidyl)-4-[[8-[1-(2-methylpropanoyl)-3,6-dihydro-2H-pyridin-4-yl]-[1,2,4]triazolo[1,5-a]pyridin-2-yl]amino]benzamide] | 130 |
| COCCC(=O)N1CC=C(c2cccn3nc(Nc4ccc(C(=O)N(C)C5CCN(C)CC5)cc4)nc23)CC1 [Example 2-411, 4-[[8-[1-(3-methoxypropanoyl)-3,6-dihydro-2H-pyridin-4-yl]-[1,2,4]triazolo[1,5-a]pyridin-2-yl]amino]-N-methyl-N-(1-methyl-4-piperidyl)benzamide] | 348 |
| CC(C)CCC(=O)N1CC=C(c2cccn3nc(Nc4ccc(C(=O)N(C)C5CCN(C)CC5)cc4)nc23)CC1 [Example 2-412, N-methyl-4-[[8-[1-(4-methylpentanoyl)-3,6-dihydro-2H-pyridin-4-yl]-[1,2,4]triazolo[1,5-a]pyridin-2-yl]amino]-N-(1-methyl-4-piperidyl)benzamide] | 26.5 |
| CN1CCC(N(C)C(=O)c2ccc(Nc3nc4c(C5=CCN(C(=O)N6CCOCC6)CC5)cccn4n3)cc2)CC1 [Example 2-413, N-methyl-N-(1-methyl-4-piperidyl)-4-[[8-[1-(morpholine-4-carbonyl)-3,6-dihydro-2H-pyridin-4-yl]-[1,2,4]triazolo[1,5-a]pyridin-2-yl]amino]benzamide] | 1260 |
| CCOC(=O)N1CC=C(c2cccn3nc(Nc4ccc(C(=O)NCC5CCCCN5C)cc4)nc23)CC1 (stereo not shown) [Example 2-415, ethyl 4-[2-[4-[(1-methyl-2-piperidyl)methylcarbamoyl]anilino]-[1,2,4]triazolo[1,5-a]pyridin-8-yl]-3,6-dihydro-2H-pyridine-1-carboxylate] | 13 |
| CCOC(=O)N1CC=C(c2cccn3nc(Nc4ccc(C(=O)NCCC5CCCNC5)cc4)nc23)CC1 (stereo not shown) [Example 2-416, ethyl 4-[2-[4-[2-(3-piperidyl)ethylcarbamoyl]anilino]-[1,2,4]triazolo[1,5-a]pyridin-8-yl]-3,6-dihydro-2H-pyridine-1-carboxylate] | 598 |
| CCOC(=O)N1CC=C(c2cccn3nc(Nc4ccc(C(=O)N5CC(C(=O)N6CCN(C)CC6)C5)cc4)nc23)CC1 [Example 2-421, ethyl 4-[2-[4-[3-(4-methylpiperazine-1-carbonyl)azetidine-1-carbonyl]anilino]-[1,2,4]triazolo[1,5-a]pyridin-8-yl]-3,6-dihydro-2H-pyridine-1-carboxylate] | 24.1 |
| CCOC(=O)N1CC=C(c2cccn3nc(Nc4ccc(C(=O)NCCc5cccnc5)cc4)nc23)CC1 [Example 2-422, ethyl 4-[2-[4-[2-(3-pyridyl)ethylcarbamoyl]anilino]-[1,2,4]triazolo[1,5-a]pyridin-8-yl]-3,6-dihydro-2H-pyridine-1-carboxylate] | 14 |
| CCOC(=O)N1CC=C(c2cccn3nc(Nc4ccc(C(=O)NCCc5ccccn5)cc4)nc23)CC1 [Example 2-423, ethyl 4-[2-[4-[2-(2-pyridyl)ethylcarbamoyl]anilino]-[1,2,4]triazolo[1,5-a]pyridin-8-yl]-3,6-dihydro-2H-pyridine-1-carboxylate] | 17.3 |
| CCOC(=O)N1CC=C(c2cccn3nc(Nc4ccc(C(=O)NCC5CCNCC5)cc4)nc23)CC1 [Example 2-425, ethyl 4-[2-[4-(4-piperidylmethylcarbamoyl)anilino]-[1,2,4]triazolo[1,5-a]pyridin-8-yl]-3,6-dihydro-2H-pyridine-1-carboxylate] | 226 |
| CCOC(=O)N1CC=C(c2cccn3nc(Nc4ccc(C(=O)N5CCC(Cc6cccnc6)C5)cc4)nc23)CC1 (stereo not shown) [Example 2-426, ethyl 4-[2-[4-[3-(3-pyridylmethyl)pyrrolidine-1-carbonyl]anilino]-[1,2,4]triazolo[1,5-a]pyridin-8-yl]-3,6-dihydro-2H-pyridine-1-carboxylate] | 51 |
| CCOC(=O)N1CC=C(c2cccn3nc(Nc4ccc(C(=O)NCC5CCCNC5)cc4)nc23)CC1 (stereo not shown) [Example 2-427, ethyl 4-[2-[4-(3-piperidylmethylcarbamoyl)anilino]-[1,2,4]triazolo[1,5-a]pyridin-8-yl]-3,6-dihydro-2H-pyridine-1-carboxylate] | 215 |
| CCOC(=O)N1CC=C(c2cccn3nc(Nc4ccc(C(=O)NCCC5CCCCN5)cc4)nc23)CC1 (stereo not shown) [Example 2-428, ethyl 4-[2-[4-[2-(2-piperidyl)ethylcarbamoyl]anilino]-[1,2,4]triazolo[1,5-a]pyridin-8-yl]-3,6-dihydro-2H-pyridine-1-carboxylate] | 463 |
| CCOC(=O)N1CC=C(c2cccn3nc(Nc4ccc(C(=O)N5CCCN(c6ccncc6)CC5)cc4)nc23)CC1 [Example 2-429, ethyl 4-[2-[4-[4-(4-pyridyl)-1,4-diazepane-1-carbonyl]anilino]-[1,2,4]triazolo[1,5-a]pyridin-8-yl]-3,6-dihydro-2H-pyridine-1-carboxylate] | 27.4 |
| CCOC(=O)N1CC=C(c2cccn3nc(Nc4ccc(C(=O)N5CC6(CN(C(C)=O)C6)C5)cc4)nc23)CC1 [Example 2-432, ethyl 4-[2-[4-(6-acetyl-2,6-diazaspiro[3.3]heptane-2-carbonyl)anilino]-[1,2,4]triazolo[1,5-a]pyridin-8-yl]-3,6-dihydro-2H-pyridine-1-carboxylate] | 43 |
| CCOC(=O)N1CC=C(c2cccn3nc(Nc4ccc(C(=O)NC5CCN(C)C5)cc4)nc23)CC1 (stereo not shown) [Example 2-433, ethyl 4-[2-[4-[(1-methylpyrrolidin-3-yl)carbamoyl]anilino]-[1,2,4]triazolo[1,5-a]pyridin-8-yl]-3,6-dihydro-2H-pyridine-1-carboxylate] | 13.2 |
| CCOC(=O)N1CC=C(c2cccn3nc(Nc4ccc(C(=O)N[C@H]5[C@@H]6CNC[C@@H]65)cc4)nc23)CC1 [Example 2-434, ethyl 4-[2-[4-[[(1S,5R)-3-azabicyclo[3.10]hexan-6-yl]carbamoyl]anilino]-[1,2,4]triazolo[1,5-a]pyridin-8-yl]-3,6-dihydro-2H-pyridine-1-carboxylate] | 232 |
| CCOC(=O)N1CC=C(c2cccn3nc(Nc4ccc(C(=O)N5CC6(CCCCN6)C5)cc4)nc23)CC1 [Example 2-437, ethyl 4-[2-[4-(2,5-diazaspiro[3.5]nonane-2-carbonyl)anilino]-[1,2,4]triazolo[1,5-a]pyridin-8-yl]-3,6-dihydro-2H-pyridine-1-carboxylate] | 33.7 |
| O=C(CCC(F)(F)F)N1CC=C(c2cccn3nc(Nc4ccc(C(=O)N5CCCC56CCNC6)cc4)nc23)CC1 (stereo not shown) [Example 2-440, 1-[4-[2-[4-(1,7-diazaspiro[4.4]nonane-1-carbonyl)anilino]-[1,2,4]triazolo[1,5-a]pyridin-8-yl]-3,6-dihydro-2H-pyridin-1-yl]-4,4,4-trifluoro-butan-1-one] | 156 |
